Reference: US20240316054A1, “NOVEL PLK1 PROTEIN DEGRADATION-INDUCING COMPOUND” (UPPTHERA, INC., priority 2021, published 2024)

Columns and labels:
[1] = target: T1, PLK1 (Homo sapiens, UniProt P53350); assay: Luciferase (HiBit) assay of PLK1 degradation in HeLa LgBit (Plk1-HiBit KI) cells; format: cell-based; conditions: for PLK1 (luminescence value): released after thymidine block, compound 300 nM, luminescence at 9 hours, DMSO-only control
T1 construct: endogenous in cells; host or cells: HeLa cells stably expressing LgBit, with CRISPR/Cas9 knock-in of HiBit at the PLK1 C-terminus
T1 sequence (P53350 whole entry): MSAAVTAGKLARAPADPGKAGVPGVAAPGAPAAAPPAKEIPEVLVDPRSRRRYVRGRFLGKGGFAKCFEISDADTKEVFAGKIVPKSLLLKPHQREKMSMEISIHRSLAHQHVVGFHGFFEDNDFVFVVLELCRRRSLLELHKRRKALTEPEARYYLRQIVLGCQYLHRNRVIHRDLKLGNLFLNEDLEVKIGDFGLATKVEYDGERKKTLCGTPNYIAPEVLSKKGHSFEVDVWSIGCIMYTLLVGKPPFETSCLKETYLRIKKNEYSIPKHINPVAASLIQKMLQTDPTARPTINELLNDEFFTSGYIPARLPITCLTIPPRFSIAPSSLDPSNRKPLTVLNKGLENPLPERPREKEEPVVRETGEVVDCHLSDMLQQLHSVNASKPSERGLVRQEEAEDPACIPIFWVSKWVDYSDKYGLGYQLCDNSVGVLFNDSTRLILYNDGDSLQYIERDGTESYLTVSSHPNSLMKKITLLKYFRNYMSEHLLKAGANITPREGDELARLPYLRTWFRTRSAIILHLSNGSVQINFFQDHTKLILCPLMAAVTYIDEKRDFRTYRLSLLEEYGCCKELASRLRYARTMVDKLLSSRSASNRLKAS
Text: (§1) Cell lines were constructed by transfecting LgBit vector into HeLa and HEK293T cell lines to be stably expressed. Then, gRNA and a donor were created to express the HiBit amino acid sequence behind the C-terminus of the PLK1 and BRD4 proteins contained in each cell, and then inserted into the cells together with a vector capable of expressing CRISPR/Cas9. Only cells that had undergone knock-in after completion of insertion were selected and passaged to be used.
(§2) Compounds according to Comparative Examples and Examples were completely dissolved in DMSO (Sigma-Aldrich Cat. No. D2438, Lot. No. RNBJ6524) and used in the following experiments. The compound of Comparative Example was the HBL-4 compound disclosed in the document (see Mu et al., Biochem Biophys Res Commun., 2020, 521(4): 833), which targets PLK1 and BRD4 like the compounds of the present invention, and the DMSO-only treatment group was used as the control group.
As to HeLa LgBit (Plk1-HiBit KI), cells were released after thymidine block, and then treated with compounds, and the process was as follows. Thymidine (Sigma-Aldrich Cat. No. T9250-5G) was completely dissolved in DW and used in the experiment. For thymidine block, cells were treated with 2 mM thymidine and incubated for 24 hours. For release and chemical treatment, the medium was suctioned and washed with 1×PBS. TyppLE™ was added and the cells were incubated for 5 min in a 37° C. CO2 incubator. Cells neutralized by adding complete medium were counted using the counter. For each well of a 96-well white plate (SPL), 3.3×10^4 cells were seeded in a total culture medium volume of 150 μl and incubated in a CO2 incubator.
(§3) Each cell line was incubated in a CO2 incubator for 18 hours, and then Endurazine was added to each well to reach 4% of the total volume. Here, the concentration of each compound after the addition was 300 nM for HeLa LgBit (Plk1-HiBit KI) and 100 nM for HEK293T LgBit (BRD4-HiBit KI). Then, the wavelength of the plate reader was set to 470 to 480 nm, and luminescence was tracked in real time.

[2] = target: T2, BRD4 (Homo sapiens, UniProt O60885); assay: Luciferase (HiBit) assay of BRD4 degradation in HEK293T LgBit (BRD4-HiBit KI) cells; format: cell-based; conditions: for BRD4 (luminescence value): compound 100 nM, luminescence at 8 hours, DMSO-only control
T2 construct: endogenous in cells; host or cells: HEK293T cells stably expressing LgBit, with CRISPR/Cas9 knock-in of HiBit at the BRD4 C-terminus
Text: as §1, §2
As to HEK293T LgBit (BRD4-HiBit KI), 4×10^4 cells were seeded in each well of a 96-well white plate (SPL) and cultured in a total culture medium volume of 150 μl.
as §3

PLK1 degradation level ([1]; 300 nM, 9 hours) [%] | PLK1 (luminescence value) [1] | BRD4 degradation level ([2]; 100 nM, 8 hours) [%] | BRD4 (luminescence value) [2] | SMILES
≥ 80 | 0.148 | ≥ 80 | 0.223 | CC[C@@H]1C(=O)N(C)c2cnc(Nc3ccc(C(=O)NCCOCCOCCNc4cccc5c4C(=O)N(C4CCC(=O)NC4=O)C5=O)cc3OC)nc2N1C1CCCC1 (stereo partly drawn) [Comparative Example 1, reference compound]
 | 0.208 |  | 0.692 | CC[C@@H]1C(=O)N(C)c2cnc(Nc3ccc(C(=O)NCCOCCOCCNc4cccc5c4C(=O)N(C4CCC(=O)NC4=O)C5=O)cc3)nc2N1C1CCCC1 (stereo partly drawn) [Compound 4, 4-(((R)-8-cyclopentyl-7-ethyl-5-methyl-6-oxo-5,6,7,8-tetrahydropteridin-2-yl)amino)-N-(2-(2-(2-((2-(2,6-dioxopiperidin-3-yl)-1,3-dioxoisoindolin-4-yl)amino)ethoxy)ethoxy)ethyl)benzamide]
 | 0.140 |  | 0.491 | CC[C@@H]1C(=O)N(C)c2cnc(Nc3ccc(C(=O)NCCOCCOCCOCCOCCNc4cccc5c4C(=O)N(C4CCC(=O)NC4=O)C5=O)cc3OC)nc2N1C1CCCC1 (stereo partly drawn) [Compound 5, 4-(((R)-8-cyclopentyl-7-ethyl-5-methyl-6-oxo-5,6,7,8-tetrahydropteridin-2-yl)amino)-N-(14-((2-(2,6-dioxopiperidin-3-yl)-1,3-dioxoisoindolin-4-yl)amino)-3,6,9,12-tetraoxatetradecyl)-3-methoxybenzamide]
 | 0.313 |  | 0.731 | CC[C@@H]1C(=O)N(C)c2cnc(Nc3ccc(C(=O)N[C@H]4CCN(C(=O)CCC(=O)N5CCN(c6cccc7c6C(=O)N(C6CCC(=O)NC6=O)C7=O)CC5)C4)cc3OC)nc2N1C1CCCC1 (stereo partly drawn) [Compound 6, 4-(((R)-8-cyclopentyl-7-ethyl-5-methyl-6-oxo-5,6,7,8-tetrahydropteridin-2-yl)amino)-N-((3S)-1-(4-(4-(2-(2,6-dioxopiperidin-3-yl)-1,3-dioxoisoindolin-4-yl)piperazin-1-yl)-4-oxobutanoyl)pyrrolidin-3-yl)-3-methoxybenzamide]
 | 0.120 |  | 0.488 | CC[C@@H]1C(=O)N(C)c2cnc(Nc3ccc(C(=O)NC4CCN(C(=O)CCN5CCN(c6cccc7c6C(=O)N(C6CCC(=O)NC6=O)C7=O)CC5)CC4)cc3OC)nc2N1C1CCCC1 (stereo partly drawn) [Compound 7, 4-(((R)-8-cyclopentyl-7-ethyl-5-methyl-6-oxo-5,6,7,8-tetrahydropteridin-2-yl)amino)-N-(1-(3-(4-(2-(2,6-dioxopiperidin-3-yl)-1,3-dioxoisoindolin-4-yl)piperazin-1-yl)propanoyl)piperidin-4-yl)-3-methoxybenzamide]
 | 0.204 |  | 0.394 | CC[C@@H]1C(=O)N(C)c2cnc(Nc3ccc(C(=O)NC4CCN(C(=O)CCCNc5cccc6c5C(=O)N(C5CCC(=O)NC5=O)C6=O)CC4)cc3OC)nc2N1C1CCCC1 (stereo partly drawn) [Compound 8, 4-(((R)-8-cyclopentyl-7-ethyl-5-methyl-6-oxo-5,6,7,8-tetrahydropteridin-2-yl)amino)-N-(1-(4-((2-(2,6-dioxopiperidin-3-yl)-1,3-dioxoisoindolin-4-yl)amino)butanoyl)piperidin-4-yl)-3-methoxybenzamide]
 | 0.207 |  | 0.484 | COc1cc(C(=O)NCCOCCOCCNc2cccc3c2C(=O)N(C2CCC(=O)NC2=O)C3=O)ccc1Nc1ncc2c(n1)N(C1CCCCC1)[C@H](C)C(=O)N2C (stereo partly drawn) [Compound 9, 4-(((R)-8-cyclohexyl-5,7-dimethyl-6-oxo-5,6,7,8-tetrahydropteridin-2-yl)amino)-N-(2-(2-(2-((2-(2,6-dioxopiperidin-3-yl)-1,3-dioxoisoindolin-4-yl)amino)ethoxy)ethoxy)ethyl)-3-methoxybenzamide]
 | 0.343 |  | 0.629 | CC[C@@H]1C(=O)N(C)c2cnc(Nc3ccc(C(=O)N[C@H]4CC[C@H](N5CCN(CCOCCNc6cccc7c6C(=O)N(C6CCC(=O)NC6=O)C7=O)CC5)CC4)cc3OC)nc2N1C1CCCC1 (stereo partly drawn) [Compound 10, 4-(((R)-8-cyclopentyl-7-ethyl-5-methyl-6-oxo-5,6,7,8-tetrahydropteridin-2-yl)amino)-N-((1r,4R)-4-(4-(2-(2-((2-(2,6-dioxopiperidin-3-yl)-1,3-dioxoisoindolin-4-yl)amino)ethoxy)ethyl)piperazin-1-yl)cyclohexyl)-3-methoxybenzamide]
